From patent publication US20120263791A1, “FOMULATION COMPRISING 1 H-QUINAZOLINE-2, 4-DIONE AMPA RECEPTOR ANTAGONISTS, IN THE FORM OF IMMEDIATE RELEASE TABLETS AND PREPARATION THEREOF” (NOVARTIS AG, priority 2009, published 2012)

Assay: PK parameters after a single dose of three 50 mg tablets to a sample population (12)
Format: in vivo
Conditions: human, po, 150 mg, plasma, three 50 mg tablets of Example 4 in a single dose
Procedure: A 50 mg tablet as specified in Example 4 was prepared using the procedure described in Example 4. Three tablets were administered in a single dose to a sample population (12) and the PK parameters measured. These parameters are provided below.
Primary PK variables were […] and analyzed using a mixed effects linear model. Sequence, Period and Treatment factors were included in the model as fixed effects and subject as a random effect. 90% confidence intervals for PK variables (pharmacokinetic analysis population).
Drug Substance: Compound (iii); Matrix: Plasma; Analyte: Compound (iii).

- AUC(0-inf) (read-out: AUCinf, adjusted geometric mean): 16800 ng·h/mL
- AUC(0-t) (read-out: AUClast, adjusted geometric mean): 16800 ng·h/mL
- Cmax (read-out: Cmax, adjusted geometric mean): 2910 ng/mL
SMILES: CC(C)c1cc2[nH]c(=O)n(NS(C)(=O)=O)c(=O)c2cc1-c1ccnn1C [Compound (iii)]
